Test results reported in patent publication US20020137929A1, “1 - (3-heterocyclylphenyl) isothiourea, -isourea, -guanidine and -amidine herbicidal agents” (Intellectual Property Department, BASF Aktiengesellschaft, priority 1998, published 2002).

Legend:
[1] = test system: ABUTH (Velvetleaf); assay: Postemergence herbicidal evaluation; type: in vivo, Abutilon theophrasti; conditions: postemergence
Summary of the method: (§1)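 Scores (0–9) reflect plant stand, vigor, malformation, size, chlorosis and general appearance relative to control, read 4 to 5 weeks after treatment and averaged where tests were repeated. Application: about 0.0156–0.500 kg/ha sprayed at 40 psi onto two-week seedlings.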

[2] = test system: GALAP (Galium); assay: Postemergence herbicidal evaluation; type: in vivo, Galium aparine; conditions: postemergence
Summary of the method: as §1

[3] = test system: ECHCG (Barnyardgrass); assay: Postemergence herbicidal evaluation; type: in vivo, Echinochloa crus-galli; conditions: postemergence
Summary of the method: as §1

[4] = test system: SETVI (Foxtail, Green); assay: Postemergence herbicidal evaluation; type: in vivo, Setaria viridis; conditions: postemergence
Summary of the method: as §1

[5] = test system: ORYSAT (Rice, Tebonnet); assay: Postemergence herbicidal evaluation; type: in vivo, Oryza sativa, (L.) Tebonnet; conditions: postemergence
Summary of the method: as §1

[6] = test system: IPOHE (Morningglory, Ivyleaf); assay: Preemergence herbicidal evaluation; type: in vivo, Ipomoea hederacea; conditions: rated 4-5 weeks after treatment
Summary of the method: (§2)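 Seeds were mixed with potting soil and planted on about one inch of soil, then sprayed with test compound in aqueous acetone at about 0.0156 to 0.500 kg per hectare. Plants grew under standard greenhouse care and were visually rated 0-9 against untreated controls 4-5 weeks post-treatment.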

[7] = test system: TRZAWR (Wheat, Winter, cv Riband); assay: Preemergence herbicidal evaluation; type: in vivo, Triticum aestivum; conditions: rated 4-5 weeks after treatment
Summary of the method: as §2

[8] = test system: ZEAMX (Corn, Field); assay: Preemergence herbicidal evaluation; type: in vivo, Zea mays; conditions: rated 4-5 weeks after treatment
Summary of the method: as §2

[9] = test system: ECHORC (Watergrass (Calif.)); assay: Preemergence weed control under flooded paddy conditions; type: in vivo, Echinochloa oryzoides; conditions: rated 3-4 weeks after treatment
Summary of the method: (§3)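 Seeds or propagules sown in top 0.5 cm of silt loam soil, flooded 1.5 to 3 cm above surface throughout. Compound in 50/50 v/v aqueous/acetone pipetted into flood water at about 0.0313 to 0.500 kg/ha. Visual 0-9 rating versus control after three to four weeks in greenhouse.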

[10] = test system: CYPIR (Rice Flatsedge); assay: as above; type: in vivo, Cyperus iria; conditions: rated 3-4 weeks after treatment
Summary of the method: as §3

[11] = test system: MOOVA (Monochoria); assay: as above; type: in vivo, Monochoria vaginalis; conditions: rated 3-4 weeks after treatment
Summary of the method: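 Visual injury scored 0-9 against control three to four weeks post-treatment, greenhouse-grown. Application: acetone/water (50/50) solutions dosed directly into flood water (1.5-3 cm over silt loam, planted top 0.5 cm), roughly 0.0313 to 0.500 kg/ha active ingredient.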

SMILES: CCCCOC(=O)CN1C(=O)CSC1=Nc1cc(-n2c(=O)cc(C(F)(F)F)n(C)c2=O)c(F)cc1Cl [Compound 111]
- herbicidal rating ABUTH ([1]; rate 0.0158 kg/ha): 7.0
- herbicidal rating ABUTH ([1]; rate 0.0315 kg/ha): 9.0
- herbicidal rating ABUTH ([1]; rate 0.0630 kg/ha): 9.0
- herbicidal rating GALAP ([2]; rate 0.0158 kg/ha): 0.0
- herbicidal rating GALAP ([2]; rate 0.0315 kg/ha): 0.0
- herbicidal rating GALAP ([2]; rate 0.0630 kg/ha): 1.0
- herbicidal rating ECHCG ([3]; rate 0.0158 kg/ha): 3.0
- herbicidal rating ECHCG ([3]; rate 0.0315 kg/ha): 4.0
- herbicidal rating ECHCG ([3]; rate 0.0630 kg/ha): 9.0
- herbicidal rating SETVI ([4]; rate 0.0158 kg/ha): 1.0
- herbicidal rating SETVI ([4]; rate 0.0315 kg/ha): 9.0
- herbicidal rating SETVI ([4]; rate 0.0630 kg/ha): 9.0
- herbicidal rating ORYSAT ([5]; rate 0.0158 kg/ha): 2.5
- herbicidal rating ORYSAT ([5]; rate 0.0315 kg/ha): 4.5
- herbicidal rating ORYSAT ([5]; rate 0.0630 kg/ha): 4.5
- Preemergence herbicidal rating IPOHE ([6]; rate 0.0156 kg/ha): 0.0
- Preemergence herbicidal rating IPOHE ([6]; rate 0.0313 kg/ha): 0.0
- Preemergence herbicidal rating IPOHE ([6]; rate 0.0625 kg/ha): 0.0
- Preemergence herbicidal rating IPOHE ([6]; rate 0.1250 kg/ha): 9.0
- Preemergence herbicidal rating IPOHE ([6]; rate 0.2500 kg/ha): 7.0
- Preemergence herbicidal rating TRZAWR ([7]; rate 0.0156 kg/ha): 0.0
- Preemergence herbicidal rating TRZAWR ([7]; rate 0.0313 kg/ha): 0.0
- Preemergence herbicidal rating TRZAWR ([7]; rate 0.0625 kg/ha): 0.0
- Preemergence herbicidal rating TRZAWR ([7]; rate 0.1250 kg/ha): 1.0
- Preemergence herbicidal rating TRZAWR ([7]; rate 0.2500 kg/ha): 4.0
- Preemergence herbicidal rating ZEAMX ([8]; rate 0.0156 kg/ha): 0.0
- Preemergence herbicidal rating ZEAMX ([8]; rate 0.0313 kg/ha): 0.0
- Preemergence herbicidal rating ZEAMX ([8]; rate 0.0625 kg/ha): 0.0
- Preemergence herbicidal rating ZEAMX ([8]; rate 0.1250 kg/ha): 4.0
- Preemergence herbicidal rating ZEAMX ([8]; rate 0.2500 kg/ha): 4.0
- ECHORC herbicidal effect rating ([9]; 0.0313 kg/ha): 0.0
- ECHORC herbicidal effect rating ([9]; 0.0625 kg/ha): 3.0
- ECHORC herbicidal effect rating ([9]; 0.1250 kg/ha): 6.0
- ECHORC herbicidal effect rating ([9]; 0.2500 kg/ha): 7.0
- CYPIR herbicidal effect rating ([10]; 0.0313 kg/ha): 0.0
- CYPIR herbicidal effect rating ([10]; 0.0625 kg/ha): 3.0
- CYPIR herbicidal effect rating ([10]; 0.1250 kg/ha): 4.0
- CYPIR herbicidal effect rating ([10]; 0.2500 kg/ha): 5.0
- MOOVA herbicidal effect rating ([11]; 0.0313 kg/ha): 3.0
- MOOVA herbicidal effect rating ([11]; 0.0625 kg/ha): 4.0
- MOOVA herbicidal effect rating ([11]; 0.1250 kg/ha): 4.0
- MOOVA herbicidal effect rating ([11]; 0.2500 kg/ha): 4.0

SMILES: CCOC(=O)CN1C(=O)C(C(=O)OCC)SC1=Nc1cc(-n2c(=O)cc(C(F)(F)F)n(C)c2=O)c(F)cc1Cl (centres unmarked) [Compound 127, 5-Carboxy-2-{{2-chloro-5-[3,6-dihydro-3-methyl-2,6-dioxo-4-(trifluoromethyl)-1(2H)-pyrimidinyl]-4-fluorophenyl}imino}-4-oxo-3-thiazolidineacetic acid, diethyl ester]
- herbicidal rating ABUTH ([1]; rate 0.0156 kg/ha): 9.0
- herbicidal rating ABUTH ([1]; rate 0.0313 kg/ha): 9.0
- herbicidal rating ABUTH ([1]; rate 0.0625 kg/ha): 9.0
- herbicidal rating ABUTH ([1]; rate 0.1250 kg/ha): 9.0
- herbicidal rating GALAP ([2]; rate 0.0156 kg/ha): 0.0
- herbicidal rating GALAP ([2]; rate 0.0313 kg/ha): 0.0
- herbicidal rating GALAP ([2]; rate 0.0625 kg/ha): 2.0
- herbicidal rating GALAP ([2]; rate 0.1250 kg/ha): 3.0
- herbicidal rating ECHCG ([3]; rate 0.0156 kg/ha): 0.0
- herbicidal rating ECHCG ([3]; rate 0.0313 kg/ha): 0.0
- herbicidal rating ECHCG ([3]; rate 0.0625 kg/ha): 1.0
- herbicidal rating ECHCG ([3]; rate 0.1250 kg/ha): 3.0
- herbicidal rating SETVI ([4]; rate 0.0156 kg/ha): 0.0
- herbicidal rating SETVI ([4]; rate 0.0313 kg/ha): 1.0
- herbicidal rating SETVI ([4]; rate 0.0625 kg/ha): 7.0
- herbicidal rating SETVI ([4]; rate 0.1250 kg/ha): 9.0
- herbicidal rating ORYSAT ([5]; rate 0.0156 kg/ha): 0.5
- herbicidal rating ORYSAT ([5]; rate 0.0313 kg/ha): 0.5
- herbicidal rating ORYSAT ([5]; rate 0.0625 kg/ha): 0.5
- herbicidal rating ORYSAT ([5]; rate 0.1250 kg/ha): 2.5
- Preemergence herbicidal rating IPOHE ([6]; rate 0.0313 kg/ha): 0.0
- Preemergence herbicidal rating IPOHE ([6]; rate 0.0625 kg/ha): 0.0
- Preemergence herbicidal rating IPOHE ([6]; rate 0.1250 kg/ha): 1.0
- Preemergence herbicidal rating IPOHE ([6]; rate 0.2500 kg/ha): 9.0
- Preemergence herbicidal rating IPOHE ([6]; rate 0.5000 kg/ha): 9.0
- Preemergence herbicidal rating TRZAWR ([7]; rate 0.0313 kg/ha): 0.0
- Preemergence herbicidal rating TRZAWR ([7]; rate 0.0625 kg/ha): 0.0
- Preemergence herbicidal rating TRZAWR ([7]; rate 0.1250 kg/ha): 0.0
- Preemergence herbicidal rating TRZAWR ([7]; rate 0.2500 kg/ha): 0.0
- Preemergence herbicidal rating TRZAWR ([7]; rate 0.5000 kg/ha): 7.0
- Preemergence herbicidal rating ZEAMX ([8]; rate 0.0313 kg/ha): 0.0
- Preemergence herbicidal rating ZEAMX ([8]; rate 0.0625 kg/ha): 0.0
- Preemergence herbicidal rating ZEAMX ([8]; rate 0.1250 kg/ha): 0.0
- Preemergence herbicidal rating ZEAMX ([8]; rate 0.2500 kg/ha): 4.0
- Preemergence herbicidal rating ZEAMX ([8]; rate 0.5000 kg/ha): 8.0
- herbicidal effect rating, ECHORC ([9]; 0.0313 kg/ha): 4.0
- herbicidal effect rating, ECHORC ([9]; 0.0625 kg/ha): 7.0
- herbicidal effect rating, ECHORC ([9]; 0.1250 kg/ha): 9.0
- herbicidal effect rating, ECHORC ([9]; 0.2500 kg/ha): 9.0
- herbicidal effect rating, CYPIR ([10]; 0.0313 kg/ha): 2.0
- herbicidal effect rating, CYPIR ([10]; 0.0625 kg/ha): 2.0
- herbicidal effect rating, CYPIR ([10]; 0.1250 kg/ha): 4.0
- herbicidal effect rating, CYPIR ([10]; 0.2500 kg/ha): 4.0
- herbicidal effect rating, MOOVA ([11]; 0.0313 kg/ha): 3.0
- herbicidal effect rating, MOOVA ([11]; 0.0625 kg/ha): 3.0
- herbicidal effect rating, MOOVA ([11]; 0.1250 kg/ha): 5.0
- herbicidal effect rating, MOOVA ([11]; 0.2500 kg/ha): 7.0
